Target: zebrafish WT α1BB-AR (Danio rerio, UniProt Q5U3D9)
Experiment: cell-based

zebrafish WT α1BB-AR, sequence (Q5U3D9 1-481): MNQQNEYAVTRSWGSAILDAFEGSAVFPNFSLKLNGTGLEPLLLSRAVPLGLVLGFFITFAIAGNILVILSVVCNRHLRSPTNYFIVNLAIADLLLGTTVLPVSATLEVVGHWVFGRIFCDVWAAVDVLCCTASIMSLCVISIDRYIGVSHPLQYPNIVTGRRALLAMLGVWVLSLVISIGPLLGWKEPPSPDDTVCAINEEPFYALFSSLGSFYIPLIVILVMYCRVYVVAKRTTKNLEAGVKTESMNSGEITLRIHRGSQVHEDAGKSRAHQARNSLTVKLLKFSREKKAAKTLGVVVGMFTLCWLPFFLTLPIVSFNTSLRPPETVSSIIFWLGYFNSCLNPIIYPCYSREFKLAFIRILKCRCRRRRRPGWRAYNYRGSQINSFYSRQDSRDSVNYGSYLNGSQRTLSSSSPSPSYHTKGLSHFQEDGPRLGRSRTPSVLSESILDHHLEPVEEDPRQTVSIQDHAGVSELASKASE

`NC[C@H](O)c1ccc(O)c(O)c1` [NE, norepinephrine] gave an EC50 of 407 ± 45 nM.
